Experimental findings from patent publication US20240254118A1, “PRMT5 INHIBITORS AND USES THEREOF” (Gilead Sciences, Inc., priority 2022, published 2024) are described below.

The structures appear in SMILES notation.

Experiment [1] relates to SDMA signal (PRMT5 inhibition) in HCT116 MTAP-deleted cells. Briefly: Symmetric di-methyl arginine image-based high content screen assay (SDMA assay), HCT116 MTAP-deleted. The class given is cell-based. The settings on record: SDMA assay; for EC50: Homo sapiens, HCT-116, 72 h, 3 days of treatment, cell line not given, taken as HCT116 MTAP-deleted, read-out: EC50 (SDMA assay); for EC50 selectivity (SDMA assay): taken as HCT116 WT versus MTAP-deleted. The procedure, abridged: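 HCT116 MTAP-deleted cells treated with compound until Day 3, then formalin-fixed, permeabilized and immunostained for SDMA, with DAPI nuclear counterstain. Imaged by high-content microscopy; SDMA read-out is mean Alexa 488 intensity per DAPI-defined cell, reflecting PRMT5 inhibition.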

The subject of experiment [2] is HCT116 MTAP-deleted cells. Description: Cell viability assay (CellTiter-Glo, 7 days), HCT116 MTAP-deleted. The settings on record: Homo sapiens, HCT-116, 168 h. (In ATP-based viability assays light output follows the ATP content of the culture.)

Usually EC50 stands for the concentration needed to bring the measured effect to its halfway point. One may read the CC50 as the concentration that lowers cell viability or growth by half.

On to `CC(=O)N(C(C)C)N(Cc1ccc(C(F)(F)F)cn1)C(=O)c1ccc2nc(N)c3cnn(C)c3c2c1` [Example 203, N′-acetyl-4-amino-N′-isopropyl-1-methyl-N-[[5-(trifluoromethyl)-2-pyridyl]methyl]pyrazolo[4,3-c]quinoline-8-carbohydrazide], for which, in experiment [1], the EC50 was 1 to 5 nM and the “EC50 selectivity (SDMA assay)” value is recorded as 159. In experiment [2], the CC50 lay in the range of 100 to 1000 nM.

Consider `CCN(C(C)=O)N(Cc1ccc(C(F)(F)F)cn1)C(=O)c1ccc2nc(N)c3cnn(C)c3c2c1` [Example 204, N′-acetyl-4-amino-N′-ethyl-1-methyl-N-[[5-(trifluoromethyl)-2-pyridyl]methyl]pyrazolo[4,3-c]quinoline-8-carbohydrazide], for which, in experiment [1], the EC50 is 1 to 5 nM and the “EC50 selectivity (SDMA assay)” value came to 150. Besides, the CC50 in experiment [2] was below 100 nM.

`CCN(C(C)=O)N(Cc1ccc(C(F)(F)F)cn1)C(=O)c1cc2c(cc1F)nc(N)c1cnn(C)c12` [Example 205, N′-acetyl-4-amino-N′-ethyl-7-fluoro-1-methyl-N-[[5-(trifluoromethyl)-2-pyridyl]methyl]pyrazolo[4,3-c]quinoline-8-carbohydrazide]: in experiment [1], the EC50 is below 1 nM and the “EC50 selectivity (SDMA assay)” value was 44. In experiment [2], this compound had a CC50 below 100 nM.

For `CC(=O)N([C@@H]1CCOC1)N(Cc1ccc(C(F)(F)F)cn1)C(=O)c1ccc2nc(N)c3cnn(C)c3c2c1` [Example 206, N′-acetyl-4-amino-1-methyl-N′-[(3R)-tetrahydrofuran-3-yl]-N-[[5-(trifluoromethyl)-2-pyridyl]methyl]pyrazolo[4,3-c]quinoline-8-carbohydrazide], in experiment [1], the EC50 was above 5 nM and the “EC50 selectivity (SDMA assay)” value is recorded as 220. Moreover, the CC50 in experiment [2] lay within 100 to 1000 nM.

For the compound `CC(=O)N([C@H]1CCOC1)N(Cc1ccc(C(F)(F)F)cn1)C(=O)c1ccc2nc(N)c3cnn(C)c3c2c1` [Example 207, N′-acetyl-4-amino-1-methyl-N′-[(3S)-tetrahydrofuran-3-yl]-N-[[5-(trifluoromethyl)-2-pyridyl]methyl]pyrazolo[4,3-c]quinoline-8-carbohydrazide], in experiment [1], the EC50 was 1 to 5 nM and the “EC50 selectivity (SDMA assay)” value came out at 364. The compound also registered a half-maximal cytotoxic concentration (CC50) in experiment [2] of 100 to 1000 nM.

Consider `Cn1ncc2c(N)nc3ccc(C(=O)N(Cc4nc5cc(Cl)ccc5n4C)N4CCCC4=O)cc3c21` [Example 208, 4-Amino-N-[(5-chloro-1-methyl-benzimidazol-2-yl)methyl]-1-methyl-N-(2-oxopyrrolidin-1-yl)pyrazolo[4,3-c]quinoline-8-carboxamide], for which, in experiment [1], the EC50 was below 1 nM and the “EC50 selectivity (SDMA assay)” value was determined as 91. The compound also registered a CC50 in experiment [2] below 100 nM.

`CC(=O)N(C)N(Cc1nc2cc(Cl)ccc2n1C)C(=O)c1ccc2nc(N)c3cnn(C)c3c2c1` [Example 209, N′-Acetyl-4-amino-N-[(5-chloro-1-methyl-benzimidazol-2-yl)methyl]-N′,1-dimethyl-pyrazolo[4,3-c]quinoline-8-carbohydrazide]: in experiment [1], the EC50 was below 1 nM and the “EC50 selectivity (SDMA assay)” value stood at 228. This compound also came in with a CC50 in experiment [2] below 100 nM.

Regarding `CC(=O)N(C)N(Cc1nc2cc(Cl)ccc2n1C)C(=O)c1cc2c(cc1F)nc(N)c1cnn(C)c12` [Example 210, N′-acetyl-4-amino-N-[(5-chloro-1-methyl-benzimidazol-2-yl)methyl]-7-fluoro-N′,1-dimethyl-pyrazolo[4,3-c]quinoline-8-carbohydrazide], in experiment [1], the EC50 was in the range of 1 to 5 nM and the “EC50 selectivity (SDMA assay)” value turned out to be 59. This compound also came in with a CC50 in experiment [2] below 100 nM.

Consider `Cn1ncc2c(N)nc3ccc(C(=O)N(Cc4nc5cc(Cl)ccc5n4C)N4CCCCC4=O)cc3c21` [Example 211, 4-amino-N-((5-chloro-1-methyl-1H-benzo[d]imidazol-2-yl)methyl)-1-methyl-N-(2-oxopiperidin-1-yl)-1H-pyrazolo[4,3-c]quinoline-8-carboxamide], for which, in experiment [1], the 50% effective concentration (EC50) is below 1 nM and the “EC50 selectivity (SDMA assay)” value is 142. In addition, the CC50 in experiment [2] is below 100 nM.

On to `Cn1ncc2c(N)nc3cc(F)c(C(=O)N(Cc4nc5cc(Cl)ccc5n4C)N4CCCCC4=O)cc3c21` [Example 212, 4-Amino-N-[(5-chloro-1-methyl-benzimidazol-2-yl)methyl]-7-fluoro-1-methyl-N-(2-oxo-1-piperidyl)pyrazolo[4,3-c]quinoline-8-carboxamide], for which, in experiment [1], the EC50 was 1 to 5 nM and the “EC50 selectivity (SDMA assay)” value is 80. Besides, in experiment [2], the CC50 is below 100 nM.

`CC(=O)N(C)N(Cc1cc2ccccc2s1)C(=O)c1ccc2nc(N)c3cnn(C)c3c2c1` [Example 213, N′-Acetyl-4-amino-N-(benzothiophen-2-ylmethyl)-N′,1-dimethyl-pyrazolo[4,3-c]quinoline-8-carbohydrazide]: in experiment [1], the EC50 is below 1 nM and the “EC50 selectivity (SDMA assay)” value is 209. In addition, in experiment [2], the CC50 is below 100 nM.

As for `CC(=O)N(C)N(Cc1nc2ccc(F)cc2s1)C(=O)c1cc2c(cc1F)nc(N)c1cnn(C)c12` [Example 214, N′-acetyl-4-amino-7-fluoro-N-[(6-fluoro-1,3-benzothiazol-2-yl)methyl]-N′,1-dimethyl-pyrazolo[4,3-c]quinoline-8-carbohydrazide], in experiment [1], the EC50 is below 1 nM and the “EC50 selectivity (SDMA assay)” value amounted to 74. The CC50 in experiment [2] was below 100 nM.

In the case of `CC(=O)NN(Cc1nc2cc(C(F)(F)F)ccc2s1)C(=O)c1ccc2nc(N)c3cnn(C)c3c2c1` [Example 215, N′-acetyl-4-amino-1-methyl-N-[[5-(trifluoromethyl)-1,3-benzothiazol-2-yl]methyl]pyrazolo[4,3-c]quinoline-8-carbohydrazide], in experiment [1], the EC50 was below 1 nM and the “EC50 selectivity (SDMA assay)” value stood at 90. For the same compound, in experiment [2], the CC50 was below 100 nM.

Turning to `CC(=O)NN(Cc1nc2cc(C(F)(F)F)ccc2s1)C(=O)c1cc2c(cc1F)nc(N)c1cnn(C)c12` [Example 216, N′-acetyl-4-amino-7-fluoro-1-methyl-N-[[5-(trifluoromethyl)-1,3-benzothiazol-2-yl]methyl]pyrazolo[4,3-c]quinoline-8-carbohydrazide], in experiment [1], the EC50 was below 1 nM and the “EC50 selectivity (SDMA assay)” value came to 54. In addition, the CC50 in experiment [2] was below 100 nM.

`CN(C(=O)c1cocn1)N(Cc1ccc(C(F)(F)F)cc1)C(=O)c1ccc2nc(N)c3cnn(C)c3c2c1` [Example 218, N′-(4-amino-1-methyl-1H-pyrazolo[4,3-c]quinoline-8-carbonyl)-N-methyl-N′-(4-(trifluoromethyl)benzyl)oxazole-4-carbohydrazide]: in experiment [1], the half-maximal effective concentration (EC50) was below 1 nM and the “EC50 selectivity (SDMA assay)” value was found to be 6. Also, the CC50 in experiment [2] is below 100 nM.

As to `CN(C(=O)c1ncco1)N(Cc1ccc(C(F)(F)F)cc1)C(=O)c1ccc2nc(N)c3cnn(C)c3c2c1` [Example 219, N′-(4-amino-1-methyl-1H-pyrazolo[4,3-c]quinoline-8-carbonyl)-N-methyl-N′-(4-(trifluoromethyl)benzyl)oxazole-2-carbohydrazide], in experiment [1], the EC50 is below 1 nM and the “EC50 selectivity (SDMA assay)” value amounted to 9. In experiment [2], this compound showed a CC50 below 100 nM.
